Test results as given in patent publication US9271978B2 (Zenith Epigenetics Corp., priority 2012, dated 2016).

Tests used:
Parameters in all cases: key: Active: Compounds with an IC50 value less than 30 μM were deemed to be active.; Not Active: Compounds with an IC50 value less than 30 μM were deemed to be active
[1] = biological target: T1, second bromodomain of Brd2 (BRD2(2)) (Homo sapiens, UniProt P25440); assay: Inhibition of tetra-acetylated histone H4 binding to Brd2 bromodomain 2 (TR-FRET); details: tetra-acetylated histone H4 peptide, active = IC50 <30 μM
T1 construct: made in house; host or cells: E. coli BL21 (DE3)
Outline: (§1)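 N-terminally His-tagged bromodomains (200 nM), expressed in E. coli, were incubated with biotinylated tetra-acetylated histone H4 peptide (25-50 nM), Eu-cryptate streptavidin and XL665 anti-His antibody in HEPES pH 7.4 buffer with KF, 0.2% DMSO, 2 h at room temperature. Inhibition read as decreased 665/620 nm TR-FRET; IC50 from dose-response curves.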

[2] = test system: c-myc; assay: Inhibition of c-myc expression in MV4-11 cells (mRNA, real-time PCR); format: cell-based; details: Human AML MV4-11 cells, 3 h incubation
Experimental: MV4-11 cells (2.5×10^4 cells) were plated in 96 well U-bottom plates with test compound or DMSO (0.1%), and incubated for 3 h at 37° C. Cells were then harvested by centrifugation, lysed, and mRNA was isolated using the mRNA catcher plus kit (Invitrogen). Reverse transcription of the mRNA and duplex amplification of the c-myc and cyclophilin cDNAs was performed using the RNA Ultrasense kit (Invitrogen) and a ViiA7 real-time PCR machine (Applied Biosystems). IC50 values were determined from a dose response curve.

[3] = test system: human AML MV-4-11 (CRL-9591) cells; assay: Inhibition of cell proliferation in MV4-11 cells; format: cell-based; details: human AML MV-4-11 cells, 72 h; active = IC50 <30 μM
Experimental: MV4-11 cells: 96-well plates were seeded with 5×10^4 cells per well of exponentially growing human AML MV-4-11 (CRL-9591) cells and immediately treated with two-fold dilutions of test compounds, ranging from 30 μM to 0.2 μM. Triplicate wells were used for each concentration, as well as a media only and three DMSO control wells. The cells and compounds were incubated at 37° C., 5% CO2 for 72 h before adding 20 μL of the CellTiter Aqueous One Solution (Promega) to each well and incubating at 37° C., 5% CO2 for an additional 3-4 h. The absorbance was taken at 490 nm in a spectrophotometer and the percentage of proliferation relative to DMSO-treated cells was calculated after correction from the blank well. IC50 were calculated using the GraphPad Prism software.

[4] = biological target: T2, Brd4 bromodomain 1 (BRD4(1)) (Homo sapiens, UniProt O60885); assay: Inhibition of tetra-acetylated histone H4 binding to Brd4 bromodomain 1 (TR-FRET); details: tetra-acetylated histone H4 peptide, active = IC50 <30 μM
T2 construct: Illustrative results with the first bromodomain of Brd4; made in house; host or cells: E. coli BL21 (DE3)
Outline: as §1

[5] = test system: hIL-6 mRNA; assay: Inhibition of hIL-6 mRNA transcription in U937 cells; format: cell-based, human; details: LPS stimulation, active = IC50 <30 μM
Experimental: In this example, hIL-6 mRNA in tissue culture cells was quantitated to measure the transcriptional inhibition of hIL-6 when treated with a compound of the present disclosure.
A human leukemic monocyte lymphoma cell line (U937) was plated (3.2×10^4 cells per well) in a 96-well plate in […] RPMI-1640 containing 10% FBS and penicillin/streptomycin, and differentiated into macrophages for 3 days in 60 ng/mL PMA ([…]) at 37° C. in 5% CO2 prior to the addition of the compound of interest. The cells were pretreated for 1 h with the test compound prior to stimulation with 1 ug/mL lipopolysaccharide from Escherichia coli. The cells were incubated at 37° C. for 3 h before the cells were harvested. At time of harvest, the spent media was removed from the cells and the cells were rinsed in […] PBS. Cell lysis solution (70 μL) was added the cells in each well and incubated for 5-10 min at room temperature, to allow for complete cell lysis and detachment. mRNA was then prepared using the “mRNA Catcher PLUS plate” (Invitrogen), according to the protocol supplied. After the last wash, as much wash buffer as possible was aspirated without allowing the wells to dry. Elution buffer (E3, 70 μL) was then added to each well. mRNA was then eluted by incubating the mRNA Catcher PLUS plate with Elution Buffer for 5 min at 68° C. and then immediately placing the plate on ice.
The eluted mRNA isolated was then used in a one-step quantitative real-time PCR reaction, using components of the Ultra Sense Kit together with Applied Biosystems primer-probe mixes. Real-time PCR data was analyzed, normalizing the Ct values for hIL-6 to an internal control, prior to determining the fold induction of each unknown sample, relative to the control.

T1 sequence (P25440 344-453 limits assumed): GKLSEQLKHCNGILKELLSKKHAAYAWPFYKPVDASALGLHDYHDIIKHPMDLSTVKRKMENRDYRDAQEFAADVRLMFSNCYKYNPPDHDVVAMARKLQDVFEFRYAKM

Structure (SMILES): Cc1noc(C)c1-c1ccc(=O)n(Cc2ccccn2)n1 [Example 2, 6-(3,5-Dimethylisoxazol-4-yl)-2-(pyridin-2-ylmethyl)pyridazin-3(2H)-one]
- FRET activity (IC50 <30 μM) BRD2(2) [1]: Active
- c-myc activity (IC50 <30 μM) [2]: Not Active
- Cell Proliferation activity (IC50 <30 μM) [3]: Not Active
- FRET activity (IC50 <30 μM) BRD4(1) [4]: Active

Structure (SMILES): Cc1noc(C)c1-c1ccc(=O)n(Cc2cccc(F)c2)n1 [Example 22, 6-(3,5-Dimethylisoxazol-4-yl)-2-(3-fluorobenzyl)pyridazin-3(2H)-one]
- FRET activity (IC50 <30 μM) BRD2(2) [1]: Active
- c-myc activity (IC50 <30 μM) [2]: Not Active
- Cell Proliferation activity (IC50 <30 μM) [3]: Not Active
- FRET activity (IC50 <30 μM) BRD4(1) [4]: Active

Structure (SMILES): Cc1noc(C)c1-c1ccc(=O)n(Cc2c(F)cccc2F)n1 [Example 90, 2-(2,6-Difluorobenzyl)-6-(3,5-dimethylisoxazol-4-yl)pyridazin-3(2H)-one]
- FRET activity (IC50 <30 μM) BRD2(2) [1]: Active
- c-myc activity (IC50 <30 μM) [2]: Not Active
- Cell Proliferation activity (IC50 <30 μM) [3]: Not Active
- FRET activity (IC50 <30 μM) BRD4(1) [4]: Active

Structure (SMILES): Cc1ccccc1Cn1cc(-c2c(C)noc2C)ccc1=O [Example 121, 5-(3,5-Dimethylisoxazol-4-yl)-1-(2-methylbenzyl)pyridin-2(1H)-one]
- FRET activity (IC50 <30 μM) BRD2(2) [1]: Active
- c-myc activity (IC50 <30 μM) [2]: Active
- FRET activity (IC50 <30 μM) BRD4(1) [4]: Active
- IL-6 activity (IC50 <30 μM) [5]: Active

Structure (SMILES): COCc1noc(C)c1-c1ccc(=O)n(Cc2ccccc2)c1 [Example 187, 1-benzyl-5-(3-(methoxymethyl)-5-methylisoxazol-4-yl)pyridin-2(1H)-one]
- c-myc activity (IC50 <30 μM) [2]: Not Active
- Cell Proliferation activity (IC50 <30 μM) [3]: Not Active
- FRET activity (IC50 <30 μM) BRD4(1) [4]: Active
- IL-6 activity (IC50 <30 μM) [5]: Not Active

Structure (SMILES): Cc1noc(C)c1-c1cc(Nc2ccccc2)c(=O)n(Cc2ccc(Cl)cc2)c1 [Example 188, 1-(4-chlorobenzyl)-5-(3,5-dimethylisoxazol-4-yl)-3-(phenylamino)pyridin-2(1H)-one]
- c-myc activity (IC50 <30 μM) [2]: Not Active
- Cell Proliferation activity (IC50 <30 μM) [3]: Not Active
- FRET activity (IC50 <30 μM) BRD4(1) [4]: Active
- IL-6 activity (IC50 <30 μM) [5]: Active

Structure (SMILES): COc1cncc(Nc2cc(-c3c(C)noc3C)cn(Cc3ccccc3)c2=O)c1 [Example 231]
- c-myc activity (IC50 <30 μM) [2]: Active
- Cell Proliferation activity (IC50 <30 μM) [3]: Active
- FRET activity (IC50 <30 μM) BRD4(1) [4]: Active
- IL-6 activity (IC50 <30 μM) [5]: Active

Structure (SMILES): Cc1noc(C)c1-c1cc(N)c(=O)n(Cc2ccc(N3CCC3)cc2)c1 [Example 237, 3-Amino-1-(4-(azetidin-1-yl)benzyl)-5-(3,5-dimethylisoxazol-4-yl)pyridin-2(1H)-one]
- c-myc activity (IC50 <30 μM) [2]: Active
- Cell Proliferation activity (IC50 <30 μM) [3]: Active
- FRET activity (IC50 <30 μM) BRD4(1) [4]: Active
- IL-6 activity (IC50 <30 μM) [5]: Active

Structure (SMILES): Cc1noc(C)c1-c1cc(N)c(=O)n(Cc2ccc(N3CCOCC3)cc2)c1 [Example 238, 3-Amino-5-(3,5-dimethylisoxazol-4-yl)-1-(4-morpholinobenzyl)pyridin-2(1H)-one]
- c-myc activity (IC50 <30 μM) [2]: Active
- Cell Proliferation activity (IC50 <30 μM) [3]: Active
- FRET activity (IC50 <30 μM) BRD4(1) [4]: Active
- IL-6 activity (IC50 <30 μM) [5]: Active

Structure (SMILES): Cc1cc(Cn2cc(-c3c(C)noc3C)cc(N)c2=O)on1 [Example 240, 3-amino-5-(3,5-dimethylisoxazol-4-yl)-1-((3-methylisoxazol-5-yl)methyl)pyridin-2(1H)-one]
- c-myc activity (IC50 <30 μM) [2]: Active
- Cell Proliferation activity (IC50 <30 μM) [3]: Active
- FRET activity (IC50 <30 μM) BRD4(1) [4]: Active
- IL-6 activity (IC50 <30 μM) [5]: Active

Structure (SMILES): Cc1noc(C)c1-c1cc(N)c(=O)n(Cc2ccc(C(C)C)cc2)c1 [Example 242, 3-Amino-5-(3,5-dimethylisoxazol-4-yl)-1-(4-isopropylbenzyl)pyridin-2(1H)-one]
- c-myc activity (IC50 <30 μM) [2]: Active
- Cell Proliferation activity (IC50 <30 μM) [3]: Active
- FRET activity (IC50 <30 μM) BRD4(1) [4]: Active
- IL-6 activity (IC50 <30 μM) [5]: Active

Structure (SMILES): Cc1cc(Cn2cc(-c3c(C)noc3C)cc(N)c2=O)c(C)s1 [Example 251, 3-amino-5-(3,5-dimethylisoxazol-4-yl)-1-((2,5-dimethylthiophen-3-yl)methyl)pyridin-2(1H)-one]
- c-myc activity (IC50 <30 μM) [2]: Active
- Cell Proliferation activity (IC50 <30 μM) [3]: Active
- FRET activity (IC50 <30 μM) BRD4(1) [4]: Active
- IL-6 activity (IC50 <30 μM) [5]: Active

Structure (SMILES): Cc1noc(C)c1-c1cc(N)c(=O)n(Cc2cncc(Cl)c2)c1 [Example 252, 3-amino-1-((5-chloropyridin-3-yl)methyl)-5-(3,5-dimethylisoxazol-4-yl)pyridin-2(1H)-one]
- c-myc activity (IC50 <30 μM) [2]: Active
- Cell Proliferation activity (IC50 <30 μM) [3]: Active
- FRET activity (IC50 <30 μM) BRD4(1) [4]: Active
- IL-6 activity (IC50 <30 μM) [5]: Active

Structure (SMILES): Cc1noc(C)c1-c1cc(N)c(=O)n(Cc2ncccc2Cl)c1 [Example 254, 3-amino-1-((3-chloropyridin-2-yl)methyl)-5-(3,5-dimethylisoxazol-4-yl)pyridin-2(1H)-one]
- c-myc activity (IC50 <30 μM) [2]: Active
- Cell Proliferation activity (IC50 <30 μM) [3]: Active
- FRET activity (IC50 <30 μM) BRD4(1) [4]: Active
- IL-6 activity (IC50 <30 μM) [5]: Active

Structure (SMILES): Cc1noc(C)c1-c1cc(N)c(=O)n(Cc2ccc(Cl)cn2)c1 [Example 255, 3-amino-1-((5-chloropyridin-2-yl)methyl)-5-(3,5-dimethylisoxazol-4-yl)pyridin-2(1H)-one]
- c-myc activity (IC50 <30 μM) [2]: Active
- Cell Proliferation activity (IC50 <30 μM) [3]: Active
- FRET activity (IC50 <30 μM) BRD4(1) [4]: Active

Structure (SMILES): Cc1noc(C)c1-c1cc(N)c(=O)n(Cc2ccc3c(c2)OCO3)c1 [Example 256, 3-amino-1-(benzo[d][1,3]dioxol-5-ylmethyl)-5-(3,5-dimethylisoxazol-4-yl)pyridin-2(1H)-one]
- c-myc activity (IC50 <30 μM) [2]: Active
- Cell Proliferation activity (IC50 <30 μM) [3]: Active
- FRET activity (IC50 <30 μM) BRD4(1) [4]: Active
- IL-6 activity (IC50 <30 μM) [5]: Active

Structure (SMILES): Cc1noc(C)c1-c1cc(N)c(=O)n(Cc2ccc(C#N)cc2F)c1 [Example 261, 4-((3-amino-5-(3,5-dimethylisoxazol-4-yl)-2-oxopyridin-1(2H)-yl)methyl)-3-fluorobenzonitrile]
- c-myc activity (IC50 <30 μM) [2]: Active
- Cell Proliferation activity (IC50 <30 μM) [3]: Active
- FRET activity (IC50 <30 μM) BRD4(1) [4]: Active

Structure (SMILES): Cc1noc(C)c1-c1cc(N)c(=O)n(Cc2ccc(C#N)c(F)c2)c1 [Example 262, 4-((3-amino-5-(3,5-dimethylisoxazol-4-yl)-2-oxopyridin-1(2H)-yl)methyl)-2-fluorobenzonitrile]
- c-myc activity (IC50 <30 μM) [2]: Active
- Cell Proliferation activity (IC50 <30 μM) [3]: Active
- FRET activity (IC50 <30 μM) BRD4(1) [4]: Active
